Like-named read-outs stand apart in the source and are kept apart here.
Key:
Format in all cases: cell-based
MMP13 = experiment: inhibition of IL-1β-induced MMP13 release in SW1353 chondrocyte cells (ELISA); settings: Homo sapiens, read-out: IC50, concentration reducing the release of MMP13 50%
IL-8 = experiment: inhibition of IL-1β-induced IL-8 release in SW1353 chondrocyte cells (ELISA); settings: Homo sapiens, SW1353, 24 h, read-out: IC50, concentration reducing the release of IL-8 50%
Procedure: Glucocorticoids have anti-inflammatory efficacy in a variety of cell models. Clinically, glucocorticoids set the benchmark for anti-inflammatory therapeutics.
For efficacy testing, 10,000 SW1353 cells (ATCC# HTB-94) were plated in 96 well plates in DMEM with 10% Fetal Bovine Serum (FBS). The next day media was changed to DMEM without serum.
After 24 hours the amount of MMP13 and IL-8 released into the media was quantified using commercial ELISA assays (Amersham and R&D Systems, respectively).
The concentration of compound reducing the release of MMP13 or IL-8 50% (IC50) was determined from the plot of the drug dose vs. percent inhibition relative to the vehicle control.

[1] = system: primary human osteoblasts; experiment: alkaline phosphatase assay in primary human osteoblasts; settings: 13 days of treatment
Procedure: For alkaline phosphatase testing, primary human osteoblasts (Biowhittaker CC-2538) were plated at a density of 4,400 cells per well in 24-well plates containing OGM medium (Biowhittaker CC-3207) with 10% Fetal Bovine Serum (FBS). The next day media was changed to OGM medium supplemented with 0.1 mM ascorbic acid and 10 mM □-glycerophosphate (differentiation supplements, Biowhittaker CC-4194), and treated with reference and test compounds in a range of doses from 100 nM to 10 uM). Fresh media was added 2× per week.
After 13 days the cells were harvested and extract prepared for analysis.
Differentiation supplement medium was changed every three to four days with fresh test compound addition each time. After seven to thirteen days, the amount of alkaline phosphatase produced by the cultures was quantified using commercial alkaline phosphatase reagent (ALP Reagent) and standard (Sigma M2266 and 245-10, respectively).
Cells were rinsed with 0.9% NaCl, and lysed in alkaline phosphatase assay buffer (150 mM Tris-HCl pH 8, 0.1 mM MgCl2, 0.1 mM ZnCl2, 1% Triton X-100). Prewarmed ALP Reagent was added to lysate or to serial dilutions of the alkaline phosphatase standard and incubated at 37° C. for 30 minutes.
The calorimetric endpoint of absorbance at 405 nm was read on a SpectraMax 340 microplate reader (Molecular Devices), and after extrapolation from standard curve, values were reported in units of enzyme activity per volume.

[2] = system: primary human osteoblasts; experiment: nodule assay (Von Kossa staining) in primary human osteoblasts; settings: 28 days of treatment
Procedure: Primary human osteoblasts were cultured as for the alkaline phosphatase assay. After 28 days of test compound treatment, the cultures were fixed with 70% ethanol for 10 minutes, stained with 5% silver nitrate solution and exposed to bright light (Polaroid imaging system with 4×150 watt lamps) for 20 to 30 minutes. Wells were rinsed with water, air dried and nodules documented by micrographs at 300× magnification.

| SMILES | IC50 (MMP13; SW1353, 24 h) [nM] | IC50 (IL-8) [nM] | IC50 (MMP13; SW1353 cells, 10 ng/ml IL-1β, 24 hours) [nM] | induction of alkaline phosphatase production/activity (in words) [1] | alkaline phosphatase expression, % of dexamethasone maximum ([1]; at 1 uM) | induction of alkaline phosphatase production/activity (in words) ([1]; listed as Hydrocortisone) | nodule formation / mineral deposition (Von Kossa staining, in words) [2] |
| --- | --- | --- | --- | --- | --- | --- | --- |
| C[C@@H]1C[C@H]2[C@@H]3CCC4=CC(=O)C=C[C@]4(C)[C@@]3(F)[C@@H](O)C[C@]2(C)[C@@]1(O)C(=O)CO [dexamethasone] | ~1 | ~1 |  |  |  |  |  |
| C[C@]12CCC(=O)C=C1CC[C@@H]1[C@@H]2[C@@H](O)C[C@@]2(C)[C@H]1CC[C@]2(O)C(=O)CO [hydrocortisone] |  |  | 60 | stimulated | about 64% | dose dependent increase | dose-dependant nodule formation |
